PubChem BioAssay (NCI)
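Each compound was tested at five concentrations against cells in 96-well plates for 48 hours. GI50: concentration for 50% inhibition of growth. TGI is the concentration that stops growth completely.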

What was measured:
Assay in all cases: NCI anticancer screen, dose series, 48 h
NCI-H226 lung = test system: NCI-H226 lung
UO-31 renal = test system: UO-31 renal
SNB-19 CNS = test system: SNB-19 CNS
MALME-3M melanoma = test system: MALME-3M melanoma
HOP-62 NSCLC = test system: HOP-62 NSCLC
COLO 205 colon = test system: COLO 205 colon
M14 melanoma = test system: M14 melanoma
HOP-92 NSCLC = test system: HOP-92 NSCLC
MDA-MB-435 = test system: MDA-MB-435
K-562 leukemia = test system: K-562 leukemia

Structure (SMILES) | TGI (NCI-H226 lung) [µM] | TGI (UO-31 renal) [µM] | TGI (SNB-19 CNS) [µM] | TGI (MALME-3M melanoma) [µM] | TGI (HOP-62 NSCLC) [µM] | TGI (COLO 205 colon) [µM] | TGI (M14 melanoma) [µM] | TGI (HOP-92 NSCLC) [µM] | TGI (MDA-MB-435) [µM] | TGI (K-562 leukemia) [µM] | GI50 (NCI-H226 lung) [µM] | GI50 (UO-31 renal) [µM] | GI50 (SNB-19 CNS) [µM] | GI50 (MALME-3M melanoma) [µM] | GI50 (COLO 205 colon) [µM] | GI50 (M14 melanoma) [µM] | GI50 (HOP-92 NSCLC) [µM] | GI50 (MDA-MB-435) [µM] | GI50 (K-562 leukemia) [µM] | GI50 (HOP-62 NSCLC) [µM]
CCOC(=O)C#Cc1cccc(C#CC(=O)OCC)c1 | 22.1 | 10.1 | 11.4 | 12.1 | 11.6 | 9.92 | 5.95 | 11.8 | 9.52 | – | – | – | – | – | – | – | – | – | – | –
NNC(=O)/C(NC(=O)c1ccccc1)=C(\N)c1cccc([N+](=O)[O-])c1 | > 100 | > 100 | > 100 | > 100 | > 100 | > 100 | > 100 | > 100 | – | > 100 | – | – | – | – | – | – | – | – | – | –
Cc1ccc(NC(=S)NNC(=S)Nc2ccc(C)cc2)cc1 | > 100 | > 100 | > 100 | > 100 | – | 50 | > 100 | > 100 | > 100 | – | > 100 | 11.6 | 8.36 | 7.07 | 7.6 | 3.54 | 6.43 | 2.5 | – | –
Clc1nc(Cl)c2ncn(-c3ccccc3)c2n1 | 28.5 | 3.13 | 23.9 | 7.12 | – | 13.5 | 3.85 | 5.51 | 13.2 | 7.05 | 12.1 | 1.63 | 10.7 | 2.01 | 3.4 | 1.86 | 2.15 | 3.32 | 2.61 | –
COC(=O)C1c2cc3c(c(O)c2CCC1(C)O)C(=O)c1c(O)cc2c(c1C3=O)OC1OC2(C)C(O)C(N(C)C)C1O (stereo not given) | 0.45 | 4.62 | 1.39 | 1.17 | 1.58 | 1.73 | 5.33 | – | 2.17 | 1.03 | – | – | – | – | – | – | – | – | – | –
O=C(/C=C(/C=C/c1cccc2[nH]ccc12)OB(F)F)/C=C/c1cccc2[nH]ccc12 | 5.59 | – | 4.16 | 8.56 | 9.4 | 3.15 | 6.93 | 5.15 | 2.55 | > 100 | 1.87 | – | 1.44 | 1.01 | 0.771 | 1.07 | 1.86 | 0.475 | 0.423 | 2.31
CC1(C)CC[C@]23CC[C@]4(C)[C@H](CC[C@@H]5[C@@]6(C)CCCNC(C)(C)[C@@H]6CC[C@]54C)[C@H]2[C@H]1OC3 | 3.47 | 3 | 3.35 | 3.47 | 3.75 | 2.68 | 3.31 | – | 3.02 | 7 | 1.7 | 1.56 | 1.85 | 1.79 | 1.28 | 1.77 | – | 1.65 | 1.96 | 1.91
CCN(N=O)C1C2(CCCC2)NC(=O)C12CCCC2 (stereo not given) | > 100 | > 100 | > 100 | > 100 | > 100 | – | > 100 | – | – | > 100 | – | – | – | – | – | – | – | – | – | –
CC(=O)OCc1nnn2c1C(OC(C)=O)CC2 (stereo not given) | > 100 | > 100 | > 100 | > 100 | – | > 100 | > 100 | > 100 | – | > 100 | – | – | – | – | – | – | – | – | – | –
CCOC(=O)CCc1c(C)c2c(OC)cc(OC)cc2oc1=O | > 100 | > 100 | > 100 | > 100 | > 100 | > 100 | > 100 | > 100 | – | – | – | – | – | – | – | – | – | – | – | –
CC1(C)N=C(N)N=C(N)N1c1ccc(OCC(=O)Nc2ccc(S(=O)(=O)F)cc2Cl)c(Cl)c1 | > 100 | > 100 | > 100 | > 100 | > 100 | > 100 | > 100 | – | > 100 | > 100 | 57.8 | 44.7 | > 100 | 33.8 | 21.1 | 5.01 | – | 3.36 | 0.594 | 7.81
Cc1[nH]c(=O)n2c(C)nnc2c1C(=O)O | > 100 | > 100 | – | > 100 | > 100 | > 100 | > 100 | > 100 | – | > 100 | – | – | – | – | – | – | – | – | – | –
CCOC(=O)C(C(=O)OCC)=C1C=C(c2ccccc2)c2ccccc21 | > 100 | > 100 | > 100 | > 100 | > 100 | > 100 | > 100 | 46.8 | – | > 100 | – | – | – | – | – | – | – | – | – | –
COc1cc(-c2oc3c(OC)c(O)c(OC)c(O)c3c(=O)c2OC)cc(OC)c1OC | > 100 | > 100 | > 100 | > 100 | > 100 | > 100 | > 100 | – | > 100 | > 100 | – | – | – | – | – | – | – | – | – | –
CC(=O)[O-].CC(=O)[O-].O=C([CH-]C(=O)c1ccccc1)c1ccccc1.[Nd+3].[OH3+] | 60.6 | 49.3 | > 100 | 85.2 | 73.6 | > 100 | 53 | 63.8 | – | > 100 | 13.8 | 17 | 30.1 | 26.1 | 27.9 | 20.7 | 20.1 | – | 7.26 | 14.7
C[C@@H](NC1CCCC[C@@H]1O)c1ccccc1 (stereo not given in full) | > 100 | > 100 | > 100 | > 100 | > 100 | > 100 | > 100 | > 100 | – | > 100 | – | – | – | – | – | – | – | – | – | –
CSC1=CC(=O)c2ccccc2C1=O | 3.82 | 2.84 | 29.4 | 3.54 | 31.8 | 3.65 | 3.88 | 2.19 | 9.73 | – | 1.68 | 1.4 | 13.8 | 1.92 | 1.99 | 2.03 | 0.811 | 3.02 | – | 16.7
CCN1CCN(Cc2ccc(NC(=O)Nc3nc(-c4cc(OC)c(OC)c(OC)c4)cs3)cc2C(F)(F)F)CC1 | 3.82 | 3.78 | 3.43 | – | – | 3.2 | 3.16 | 4.23 | 2.82 | 1.92 | 1.68 | 1.36 | 1.75 | – | 1.58 | 1.58 | 1.23 | 1.5 | 0.42 | –
